ED50 and MIC data for 2 molecules are collected here from publication PMC5785531, “Pharmacokinetic parameters explain the therapeutic activity of antimicrobial agents in a silkworm infection model” (Scientific Reports, 2018).

In brackets after ≈: the same amount, converted by molar mass. Where two headings read alike, the source gives them in different places.

One test has as its system S. aureus MSSA1. In words: Silkworm systemic infection model, therapeutic activity (ED50). Type of test: in vivo, Staphylococcus aureus. An excerpt: We synthesized 50 compounds (Fig. 2, Supplementary Table 1) using the Steglich esterification scheme[31] in the presence of a […], 1-ethyl-3-(3-dimethylaminopropyl)-carbodiimide hydrochloride (Fig. 1b). Antimicrobial activities of the compounds were examined by determining the MIC against S. aureus MRSA4 in vitro; therapeutic activities were examined using a systemic infection model of silkworms infected with S. aureus MSSA1.
A total of 108,373 compounds from the chemical library of the Drug Discovery Initiative at the University of Tokyo were screened for antibacterial activity against S. aureus strain MRSA4 as previously reported. Those compounds that inhibited the growth of MRSA4 at 100 µM were further evaluated for their therapeutic effects in silkworms infected with S. aureus strain MSSA1 according to previously reported studies[17],[21].

The next test has as its system Bacillus cereus JCM20037. Description: MIC by broth microdilution assay. Type of test: cell-based. The settings on record: median of three experiments. As for the experimental part:
(§1) Antimicrobial activity was assessed by determining the MIC by broth dilution assay according to our previous reports[21],[35],[36] as per the Clinical and Laboratory Standards Institute[37]. Briefly, serial dilutions of compound 5, compound 7, and positive controls were prepared in cation-adjusted Mueller-Hinton Broth (MHB, Difco, Franklin Lakes, NJ, USA), 100 µl of which was dispensed into each well of a round-bottomed 96-well plate. The final concentrations in the well ranged from 128 µg/ml to 0.0625 µg/ml. Bacteria were grown at 37 °C overnight on either Luria Bertani (tryptone 10 g/l, yeast extract 5 g/l, NaCl 10 g/l) or Tryptic Soy Broth (TSB, Difco) agar plates or sheep blood agar plates (Eiken Chemical Co. Ltd., Tokyo, Japan). Bacterial inoculum was prepared by direct suspension of the colonies in 0.9% saline, and adjusted to obtain a turbidity equivalent to a 0.5 McFarland standard using a spectrophotometer UV-1280 (Shimadzu Corp., Kyoto, Japan). The suspension was then diluted 1:20 in cation-adjusted MHB (Difco), and 10 µl of it was inoculated into each well of previously prepared 96-well plates containing compounds to obtain approximately 5 × 10^4 colony forming units/well and incubated at 37 °C for 20 h. […] Vancomycin (Wako Pure Chemicals) or norfloxacin (Sigma Aldrich, St Louis, MO, USA) were used as positive controls. Each plate contained a growth control well and a vehicle control well. The MIC was determined as the minimum concentration that inhibited the growth of the bacteria.
A general note: In broth dilution the organism is exposed to a series of concentrations in liquid medium.

In test [1] the test system is Bacillus subtilis JCM2499. In words: MIC by broth microdilution assay. The class given is cell-based. The following applies: median of three experiments. The procedure: as §1
In test [2] the test system is Enterococcus faecalis EF1. In words: MIC by broth microdilution assay. Type of test: cell-based. The settings on record: median of three experiments. The procedure:
as §1

For the next test, the system named is Escherichia coli W3110. Description: MIC by broth microdilution assay. The class given is cell-based. The settings on record: median of three experiments. The procedure: as §1
In test [3] the test system is Listeria monocytogenes 10403S. In words: MIC by broth microdilution assay. The following applies: median of three experiments. Type of test: cell-based. The procedure:
as §1

The subject of a further test is MSSA1 (clinical isolate). Description: MIC by broth microdilution assay. Type of test: cell-based. The following applies: Staphylococcus aureus, MSSA, median of three experiments. The procedure: as §1
In a further test the test system is NCTC8325. In words: MIC by broth microdilution assay. The following applies: Staphylococcus aureus, MSSA / NCTC 8325, median of three experiments. Type of test: cell-based. The procedure: as §1
A further test concerns Newman. Description: MIC by broth microdilution assay. The settings on record: Staphylococcus aureus, MSSA, median of three experiments. Type of test: cell-based. As for the experimental part: as §1
Test [4] relates to Pseudomonas aeruginosa PAO1. Description: MIC by broth microdilution assay. The class given is cell-based. The settings on record: median of three experiments. As for the experimental part:
as §1

The subject of the next test is Smith ATCC13709. Description: MIC by broth microdilution assay. Type of test: cell-based. The settings on record: Staphylococcus aureus, ATCC 13709 / MSSA, median of three experiments. The procedure:
as §1

Test [5] deals with Staphylococcus haemolyticus JCM2416. Description: MIC by broth microdilution assay. Type of test: cell-based. The following applies: median of three experiments. As for the experimental part:
as §1

Test [6] has as its system Staphylococcus pseudintermedius JCM17571. In words: MIC by broth microdilution assay. The following applies: median of three experiments. The class given is cell-based. As for the experimental part: as §1
The test system of the next test is Staphylococcus simulans. Description: MIC by broth microdilution assay. Type of test: cell-based. The following applies: median of three experiments. The procedure:
as §1

Test [7] deals with Streptococcus sanguinis JCM5708. In words: MIC by broth microdilution assay. The class given is cell-based. The settings on record: MHB with 2.5% lysed horse blood, 24 h, median of three experiments. The procedure:
as §1

The test system of test [8] is USA300 FPR3757 (clinical isolate). In words: MIC by broth microdilution assay. The class given is cell-based. The settings on record: Staphylococcus aureus, MRSA, median of three experiments. As for the experimental part: as §1
In test [9] the test system is Vancomycin- resistant E. faecalis EF5. In words: MIC by broth microdilution assay. The following applies: Enterococcus faecalis, median of three experiments. The class given is cell-based. The procedure:
as §1

Where [10] appears, read: Staphylococcus aureus, silkworms infected with S. aureus MSSA1 (Fig. 2), read-out: ED50.

On to `O=C(OCc1cc(Cl)cc(Cl)c1)c1ccc([N+](=O)[O-])s1` [compound 5], for which the ED50 worked out at 22 µg/g with S. aureus MSSA1 (S. aureus-infected silkworms) and 22 mg/kg with S. aureus MSSA1 (setting [10]). The MIC (commonly the lowest concentration found to suppress growth) against Bacillus cereus JCM20037 was 1 µg/mL (≈ 3.01 µM); in test [1] it was 1 µg/mL (≈ 3.01 µM); in test [2], greater than 128 µg/mL; against Escherichia coli W3110, greater than 128 µg/mL; in test [3], greater than 128 µg/mL; in the test with MSSA1 (clinical isolate), 0.5 µg/mL (≈ 1.51 µM). Further, the minimal inhibitory concentration (MIC) was 0.5 µg/mL (≈ 1.51 µM) against NCTC8325; 0.5 µg/mL (≈ 1.51 µM) in the test with Newman; greater than 128 µg/mL in test [4]; 0.5 µg/mL (≈ 1.51 µM) with Smith ATCC13709; 0.25 µg/mL (≈ 0.753 µM) in test [5]; 0.125 µg/mL (≈ 0.376 µM) in test [6]. In addition, the minimum inhibitory concentration (MIC) against Staphylococcus simulans is 0.25 µg/mL (≈ 0.753 µM); in [7], greater than 128 µg/mL; in test [8], 1 µg/mL (≈ 3.01 µM); in [9], greater than 128 µg/mL.
With `O=C(OCc1ccccc1)c1ccc([N+](=O)[O-])s1` [compound 7], the values for the ED50 in the test with S. aureus MSSA1 (S. aureus-infected silkworms) and with S. aureus MSSA1 (setting [10]) were greater than 170 µg/g and greater than 170 mg/kg, respectively. Besides, the minimal inhibitory concentration (MIC) in the test with Bacillus cereus JCM20037 is 1 µg/mL (≈ 3.8 µM); in test [1], 1 µg/mL (≈ 3.8 µM); in test [2], greater than 128 µg/mL; in the test on Escherichia coli W3110 it was greater than 128 µg/mL; in test [3] it was greater than 128 µg/mL; against MSSA1 (clinical isolate), 1 µg/mL (≈ 3.8 µM). Also, the MIC in the test on NCTC8325 was 1 µg/mL (≈ 3.8 µM); with Newman it was 1 µg/mL (≈ 3.8 µM); in test [4] it was greater than 128 µg/mL; in the test on Smith ATCC13709, 0.5 µg/mL (≈ 1.9 µM); in test [5] it was 0.25 µg/mL (≈ 0.95 µM); in test [6], 0.5 µg/mL (≈ 1.9 µM). The minimum inhibitory concentration (MIC) is 0.5 µg/mL (≈ 1.9 µM) against Staphylococcus simulans, greater than 128 µg/mL in test [7], 1 µg/mL (≈ 3.8 µM) in test [8] and greater than 128 µg/mL in test [9].
